Laboratory results reported in patent US9682955B2, “Quinazoline derivatives useful as CB-1 inverse agonists” (Janssen Pharmaceutica NV, priority 2014, dated 2017).

Columns and labels:
[1] = target: Human CB2R (Cannabanoid receptor 2) (Homo sapiens (Human), UniProt P34972); assay: CB-2 in vitro cAMP assay (HTRF); assay type: cell-based; conditions: mean where tested more than once
How it was run: (§1)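 HEK-293 cells stably transfected with the human receptor, plated overnight at 4E5 cells/mL. Compounds given as 1/3 serial dilutions from 10 mM DMSO stocks. Stimulation in HBSS/5 mM HEPES/0.1% BSA with 0.5 mM IBMX and forskolin (1.5 μM in buffer); cAMP measured by competitive HTRF immunoassay (d2-cAMP, cryptate anti-cAMP) against a cAMP standard curve.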

[2] = target: Human CB1R (Cannabanoid receptor 1) (Homo sapiens (Human), UniProt P21554); assay: CB-1 in vitro cAMP assay (HTRF); assay type: cell-based; conditions: mean where tested more than once
Human CB1R (Cannabanoid receptor 1), sequence (P21554 whole entry): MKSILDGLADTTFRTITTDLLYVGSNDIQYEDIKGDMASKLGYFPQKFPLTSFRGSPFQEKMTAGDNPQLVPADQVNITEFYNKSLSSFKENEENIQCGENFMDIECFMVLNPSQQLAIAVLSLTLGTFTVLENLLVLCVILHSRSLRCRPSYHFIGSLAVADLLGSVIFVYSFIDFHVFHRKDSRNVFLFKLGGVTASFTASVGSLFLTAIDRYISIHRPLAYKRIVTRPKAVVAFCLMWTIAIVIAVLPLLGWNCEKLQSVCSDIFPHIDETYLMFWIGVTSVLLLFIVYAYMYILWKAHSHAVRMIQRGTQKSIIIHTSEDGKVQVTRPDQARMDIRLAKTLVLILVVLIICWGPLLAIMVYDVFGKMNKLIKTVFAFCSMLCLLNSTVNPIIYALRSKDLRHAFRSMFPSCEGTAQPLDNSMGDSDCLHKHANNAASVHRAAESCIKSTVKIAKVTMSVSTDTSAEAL
How it was run: as §1

Human CB2R (Cannabanoid receptor 2), sequence (P34972 whole entry): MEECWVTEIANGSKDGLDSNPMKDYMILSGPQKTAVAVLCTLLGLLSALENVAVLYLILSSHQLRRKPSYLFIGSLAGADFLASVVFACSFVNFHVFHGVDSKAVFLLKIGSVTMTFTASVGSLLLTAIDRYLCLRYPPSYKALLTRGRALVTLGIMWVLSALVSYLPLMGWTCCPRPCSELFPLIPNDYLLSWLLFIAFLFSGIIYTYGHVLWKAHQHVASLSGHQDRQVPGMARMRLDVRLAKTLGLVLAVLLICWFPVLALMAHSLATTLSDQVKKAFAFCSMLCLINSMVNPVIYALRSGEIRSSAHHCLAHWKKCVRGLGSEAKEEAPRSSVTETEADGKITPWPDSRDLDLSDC

O=C(NC(CO)(CO)CO)c1ccc(N2CCC(Nc3ncnc4ccc(C(c5ccc(Cl)cc5)c5ccc(Cl)cc5)cc34)CC2)cc1 [compound 42]
EC50 [1]: 216 nM | EC50 [2]: 180 nM

O=C(CC(F)(F)F)N1CCC(Nc2ncnc3ccc(C(c4ccc(Cl)cc4)c4ccc(Cl)cc4)cc23)CC1 [Compound #133, 1-(4-((6-(bis(4-chlorophenyl)methyl)quinazolin-4-yl)amino)piperidin-1-yl)-3,3,3-trifluoropropan-1-one]
EC50 [1]: 2210 nM | EC50 [2]: 7 nM

O=C(NC(CO)(CO)CO)c1ccc(S(=O)(=O)N2CCC(Nc3ncnc4ccc(C(c5ccc(Cl)cc5)c5ccc(Cl)cc5)cc34)CC2)cc1 [Compound #41, 4-((4-((6-(Bis(4-chlorophenyl)methyl)quinazolin-4-yl)amino)piperidin-1-yl)sulfonyl)-N-(1,3-dihydroxy-2-(hydroxymethyl)propan-2-yl)benzamide]
EC50 [1]: 1470 nM | EC50 [2]: 8 nM

CC(=O)Nc1nc(NC2CCN(S(=O)(=O)C(F)(F)F)CC2)c2cc(C(c3ccc(Cl)cc3)c3ccc(Cl)cc3)ccc2n1 [Compound #106, N-(6-(bis(4-chlorophenyl)methyl)-4-((1-((trifluoromethyl)sulfonyl)piperidin-4-yl)amino)quinazolin-2-yl)acetamide]
EC50 [1]: 5700 nM | EC50 [2]: 70 nM

FC(F)(F)CN1CCC(Nc2ncnc3ccc(C(c4ccc(Cl)cc4)c4ccc(Cl)cc4)cc23)CC1 [Compound #123, 6-(bis(4-chlorophenyl)methyl)-N-(1-(2,2,2-trifluoroethyl)piperidin-4-yl)quinazolin-4-amine]
EC50 [1]: 490 nM | EC50 [2]: 2 nM

NC(=O)c1ccc(CNc2ncnc3ccc(C(c4ccc(Cl)cc4)c4ccc(Cl)cc4)cc23)cc1 [compound 56, 4-((6-(bis(4-chlorophenyl)methyl)quinazolin-4-ylamino)methyl)benzamide]
EC50 [1]: 9100 nM | EC50 [2]: 446 nM

CS(=O)(=O)NCCOc1nc(NC2CCN(S(=O)(=O)c3ccc(C(=O)O)cc3)CC2)c2cc(C(c3ccc(Cl)cc3)c3ccc(Cl)cc3)ccc2n1 [Compound #33, 4-((4-((6-(bis(4-chlorophenyl)methyl)-2-(2-(methylsulfonamido)ethoxy)quinazolin-4-yl)amino)piperidin-1-yl)sulfonyl)benzoic acid]
EC50 [1]: 917 nM | EC50 [2]: 227 nM

O=C(CC(=O)N1CCC(Nc2ncnc3ccc(C(c4ccc(Cl)cc4)c4ccc(Cl)cc4)cc23)CC1)NCCO [compound 82, 3-(4-(6-(bis(4-chlorophenyl)methyl)quinazolin-4-ylamino)piperidin-1-yl)-N-(2-hydroxyethyl)-3-oxopropanamide]
EC50 [1]: > 10000 nM | EC50 [2]: 5750 nM

OC1(c2ccccc2)CCC(Nc2ncnc3ccc(C(c4ccc(Cl)cc4)c4ccc(Cl)cc4)cc23)CC1 (stereo not shown) [Compound #99, 4-((6-(bis(4-chlorophenyl)methyl)quinazolin-4-yl)amino)-1-phenylcyclohexanol]
EC50 [1]: 8490 nM | EC50 [2]: 1 nM

FC(F)(F)c1ccc(Nc2ncnc3ccc(C(c4ccc(Cl)cc4)c4ccc(Cl)cc4)cc23)cc1 [Compound #143, 6-(bis(4-chlorophenyl)methyl)-N-(4-(trifluoromethyl)phenyl)quinazolin-4-amine]
EC50 [1]: > 10000 nM | EC50 [2]: 91 nM

NC(=O)c1cccc(CNc2ncnc3ccc(C(c4ccc(Cl)cc4)c4ccc(Cl)cc4)cc23)c1 [Compound #57, 3-(((6-(bis(4-chlorophenyl)methyl)quinazolin-4-yl)amino)methyl)benzamide]
EC50 [1]: 4950 nM | EC50 [2]: 215 nM

COC(=O)c1ccc(CNc2ncnc3ccc(C(c4ccc(Cl)cc4)c4ccc(Cl)cc4)cc23)cc1 [compound 61, methyl 4-((6-(bis(4-chlorophenyl)methyl)quinazolin-4-ylamino)methyl)benzoate]
EC50 [1]: > 10000 nM | EC50 [2]: 20 nM

O=C(O)c1ccccc1CN1CCC(Nc2ncnc3ccc(C(c4ccc(Cl)cc4)c4ccc(Cl)cc4)cc23)CC1 [compound 21, 2-((4-(6-(bis(4-chlorophenyl)methyl)quinazolin-4-ylamino)piperidin-1-yl)methyl)benzoic acid]
EC50 [1]: 4710 nM | EC50 [2]: 4820 nM

O=C(O)c1ccc(S(=O)(=O)N2CCC(Nc3nc(OCCO)nc4ccc(C(c5ccc(Cl)cc5)c5ccc(Cl)cc5)cc34)CC2)cc1 [Compound #39, 4-((4-((6-(bis(4-chlorophenyl)methyl)-2-(2-hydroxyethoxy)quinazolin-4-yl)amino)piperidin-1-yl)sulfonyl)benzoic acid]
EC50 [1]: 514 nM | EC50 [2]: 41 nM

O=C(O)c1cccc(S(=O)(=O)N2CCC(Nc3ncnc4ccc(C(c5ccc(Cl)cc5)c5ccc(Cl)cc5)cc34)CC2)c1 [compound 101, 3-(4-(6-(bis(4-chlorophenyl)methyl)quinazolin-4-ylamino)piperidin-1-ylsulfonyl)benzoic acid]
EC50 [1]: 3880 nM | EC50 [2]: 106 nM

CC(Nc1ncnc2ccc(C(c3ccc(Cl)cc3)c3ccc(Cl)cc3)cc12)c1cccc(C(F)(F)F)c1 (stereo not shown) [compound 128, 6-(bis(4-chlorophenyl)methyl)-N-(1-(3-(trifluoromethyl)phenyl)ethyl)quinazolin-4-amine]
EC50 [1]: 10400 nM | EC50 [2]: 9 nM

O=C(O)c1cccc(CN2CCC(Nc3ncnc4ccc(C(c5ccc(Cl)cc5)c5ccc(Cl)cc5)cc34)C2)c1 (stereo not shown) [compound 17, 3-((3-(6-(bis(4-chlorophenyl)methyl)quinazolin-4-ylamino)pyrrolidin-1-yl)methyl)benzoic acid]
EC50 [1]: 7640 nM | EC50 [2]: 4000 nM

COCCOc1nc(NCc2ccc(C(F)(F)F)cc2)c2cc(C(c3ccc(Cl)cc3)c3ccc(Cl)cc3)ccc2n1 [Compound #91, 6-(bis(4-chlorophenyl)methyl)-2-(2-methoxyethoxy)-N-(4-(trifluoromethyl)benzyl)quinazolin-4-amine]
EC50 [1]: > 10000 nM | EC50 [2]: 30 nM

FC(F)(F)c1ccc(Nc2ncnc3ccc(C(c4ccc(Cl)cc4)c4ccc(Cl)cc4)cc23)cc1Cl [Compound #122, 6-(bis(4-chlorophenyl)methyl)-N-(3-chloro-4-(trifluoromethyl)phenyl)quinazolin-4-amine]
EC50 [1]: > 10000 nM | EC50 [2]: 52 nM

FC(F)(F)c1ccc(Nc2ncnc3ccc(C(c4ccc(Cl)cc4)c4nccs4)cc23)cc1 (stereo not shown) [Compound #144, 6-((4-chlorophenyl)(thiazol-2-yl)methyl)-N-(4-(trifluoromethyl)phenyl)quinazolin-4-amine]
EC50 [1]: 2750 nM | EC50 [2]: 163 nM

CCOC(=O)CCC(=O)N1CCC(Nc2ncnc3ccc(C(c4ccc(Cl)cc4)c4ccc(Cl)cc4)cc23)CC1 [Compound #81, Ethyl 4-(4-((6-(bis(4-chlorophenyl)methyl)quinazolin-4-yl)amino)piperidin-1-yl)-4-oxobutanoate]
EC50 [1]: 452 nM | EC50 [2]: 2 nM

O=C(O)c1cccc(CCN2CCC(Nc3ncnc4ccc(C(c5ccc(Cl)cc5)c5ccc(Cl)cc5)cc34)CC2)c1 [Compound #13, 3-(2-(4-(6-(bis(4-chlorophenyl)methyl)quinazolin-4-ylamino)piperidin-1-yl)ethyl)benzoic acid]
EC50 [1]: 3050 nM | EC50 [2]: 1240 nM

NCCCCOc1nc(NCc2cccc(C(F)(F)F)c2)c2cc(C(c3ccc(Cl)cc3)c3ccc(Cl)cc3)ccc2n1 [Compound #31, 2-(4-aminobutoxy)-6-(bis(4-chlorophenyl)methyl)-N-(3-(trifluoromethyl)benzyl)quinazolin-4-amine]
EC50 [1]: 4120 nM | EC50 [2]: 77 nM
